{"source": "patent US20200001109A1", "about": "“Methods For Treating Hyperbilirubinemia With Stannsoporfin And Phototherapy” (INFACARE PHARMACEUTICAL CORPORATION, priority 2016, published 2020)", "key": {"[1]": {"system": "total serum bilirubin (TSB)", "conditions": "3.0 and 4.5 mg/kg stannsoporfin patients receiving phototherapy; previous study (placebo 41%); cited from earlier work"}, "[2]": {"system": "total serum bilirubin (TSB)", "assay": "Phase 2b randomized, placebo-controlled trial of single IM stannsoporfin with phototherapy: efficacy on TSB", "assay_type": "in vivo, human infants", "conditions": "for Rebound Hyperbilirubinemia N: TSB at or above PT threshold after discontinuation of initial PT; for LS Mean Difference vs Placebo in TSB at 48 hrs: difference in TSB percentage change from baseline vs placebo plus phototherapy; for PT Failure N: exchange transfusion, IVIG use, readmission for hyperbilirubinemia or re-started PT; for Time at which TSB crosses at or below the PT threshold, Median: plus phototherapy; for LS Mean Percentage Change in TSB at 48 hrs: single IM injection plus phototherapy, change from baseline, LOCF", "protocol": "(§1) A Phase 2b multicenter, double-blind, randomized, placebo-controlled parallel group safety and efficacy trial of two doses of stannsoporfin administered as a single intramuscular injection in combination with phototherapy in term and near-term infants has been proposed and performed.\n(§2) Infants will be randomized to one of three treatment arms: placebo, 3.0 mg/kg, or 4.5 mg/kg of stannsoporfin in a 1:1:1 ratio. Infants aged 0 to 48 hours (at the time the qualifying TSB is drawn) with ABO or Rh incompatibility who are DAT-positive, or age 0 to 72 hours (at the time the qualifying TSB is drawn) with G6PD deficiency, confirmed by a documented blood test, who require the initiation of phototherapy are eligible for the study. In addition, patients aged 0 to 48 hours (at the time the qualifying TSB is drawn) with ABO or Rh incompatibility who are DAT negative (or status unknown), and have an increased reticulocyte count (>6%), and require the initiation of phototherapy are eligible for the study.\nInclusion Criteria: 1) Term and near-term infants ≥35 and ≤43 weeks gestational age (GA), age 0-48 hours (at the time the qualifying TSB is drawn) with ABO or Rh incompatibility (anti C, c, D, E or e) who are DAT-positive, or age 0-72 hours (at the time the qualifying TSB is drawn) with G6PD deficiency as confirmed by a documented blood test; OR 2) Term and near-term infants ≥35 and ≤43 weeks GA, age 0-48 hours (at the time the qualifying TSB is drawn) with ABO or Rh incompatibility (anti C, c, D, E or e) who are DAT-negative (or status unknown) and have an increased reticulocyte count (>6%); parental or guardian written consent; birth weight ≥2500 grams; TSB at or above the age-specific threshold for initiating phototherapy per the AAP guidelines (see FIG. 1 and Tables 1, 2 and 3); and parents agree to observe light precautions for 10 days post treatment\nOnce the patient's TSB is at or above the age-specific threshold for phototherapy and all inclusion and no exclusion criteria are met (including laboratory criteria), patients will be immediately randomized to receive a single intramuscular dose of either placebo (saline), 3.0 mg/kg of stannsoporfin or 4.5 mg/kg of stannsoporfin.\nCriteria for discontinuing phototherapy: The criteria for discontinuing phototherapy will be standardized. If a TSB measurement is obtained during phototherapy treatment that is below the age-specific threshold for phototherapy (FIG. 1), phototherapy should be discontinued. In order to check for rebound hyperbilirubinemia, a TSB level is to be obtained between 6 and 12 hours after phototherapy is discontinued (must be done before discharge). If the patient remains in the hospital and continues on phototherapy past 48 hours further assessments and procedures are to be conducted as listed in the Time and Event Table (Table 8).\nInitiation of Phototherapy: Once the TSB result has been received, the administration of study drug and initiation of phototherapy should occur as soon as practical. phototherapy should be started within a window of no more than ±30 minutes from IMP administration.\nPhototherapy must be narrow spectrum blue light with a single overhead unit. The height of the phototherapy unit should be adjusted to obtain an irradiance of 30 microwatts/cm2/nm at the level of the patient's abdomen. Irradiance should be measured and adjusted to maintain 30 microwatts/cm2/nm, until phototherapy is discontinued. The recordings are to be documented in the eCRF.\nMonitoring during phototherapy: It is essential to protect the patient's eyes with opaque eye patches. These must be checked periodically to ensure complete eye coverage during phototherapy. Use of biliblankets or home phototherapy is not permitted. TSB levels will be done at 6, 12, 18, 24, 30, 36±2 h, and 48 hours±6 h after study drug administration (Table 8). If the patient continues on phototherapy past 48 hours, the TSB will be obtained every 12±6 h. […]"}, "[3]": {"assay": "Phase 2b trial of stannsoporfin with phototherapy: safety (adverse events)", "assay_type": "in vivo, human infants", "protocol": "as §1, §2\nSafety outcome measures are: Incidence of adverse events and serious adverse events, changes in vital sign measurements, results of physical exam (PE) including eye and hearing assessment, results of neurologic exam, ECG assessments, clinical laboratory tests including hematology, serum chemistries, liver function and renal function tests. Adverse events and SAEs will be summarized for each treatment group and overall for both stannsoporfin treatment groups with the proportion of patients reporting each event. Actual values and change from baseline in vital signs, physical and neurologic exam and laboratory test parameters will be summarized for each treatment group and overall for both stannsoporfin treatment groups with descriptive statistics at each assessment obtained. Changes in ECG findings, ophthalmologic and audiology assessments will be summarized for each treatment group and overall for both stannsoporfin treatment groups with descriptive statistics at each assessment obtained, including changes from baseline to Day 30 (early term). Efficacy and safety parameters will also be analyzed according to DAT status.\nThe results from a Phase 2b multicenter, double blind, randomized, placebo controlled parallel group safety and efficacy trial of two doses of stannsoporfin administered as a single intramuscular (IM) injection in combination with phototherapy (PT) in term and near-term infants, all with an ABO/Rh incompatibility were highly statistically significant and positive. Ninety-one neonates (aged 24 hours of age, range 7 to 54 hours), all at medium to high risk of severe hyperbilirubinemia, all with an ABO/Rh incompatibility, birth weights of 2580 to 4930 grams, and gestational age of 35 to 42 weeks, were randomized to one of three treatment arms: placebo (saline), 3.0 mg/kg stannsoporfin, or 4.5 mg/kg of stannsoporfin. All were included in the intent-to-treat-primary efficacy and safety analyses.\nTEAEs occurred in 59% of Stannsoporfin treated infants vs 52% among placebo. Serious TEAEs occurred in 15% of Stannsoporfin treated infants vs 20% of placebo. TEAEs related to phototherapy (eg skin rash, erythema) occurred in 16% of Stannsoporfin treated infants vs 10% of placebo."}, "[4]": {"conditions": "Stannsoporfin 3.0 mg/kg (N = 30)"}, "[5]": {"conditions": "Stannsoporfin 4.5 mg/kg (N = 31)"}, "[6]": {"conditions": "Stannsoporfin Combined (N = 61)"}, "[7]": {"conditions": "both high dose (4.5 mg/kg) and low dose (3.0 mg/kg), compared with phototherapy and placebo"}, "[8]": {"conditions": "all treatment arms of the trial"}}}
{"molecule": "CCC1=C(C)c2cc3[n-]c(cc4[n-]c(cc5nc(cc1n2)C(C)=C5CC)c(C)c4CCC(=O)O)c(CCC(=O)O)c3C.[Cl-].[Cl-].[Sn+4]", "note": "[Stannsoporfin, tin-mesoporphyrin IX dichloride]", "values": [{"measurement": "increase in TSB at 48 hours", "setting": "[1]", "result": 15, "unit": "%"}, {"measurement": "PT Failure (%)", "setting": "[2]; [4]", "result": "(10%)"}, {"measurement": "PT Failure Odds Ratio vs Placebo", "setting": "[2]; [4]", "result": 0.31}, {"measurement": "Rebound Hyperbilirubinemia (%)", "setting": "[2]; [4]", "result": "(9%)"}, {"measurement": "Rebound Hyperbilirubinemia N", "setting": "[2]; [4]", "result": "0/30"}, {"measurement": "LS Mean Difference vs Placebo in TSB at 48 hrs", "setting": "[2]; [4]", "result": "−31.69"}, {"measurement": "PT Failure N", "setting": "[2]; [4]", "result": "3/30"}, {"measurement": "Time at which TSB crosses at or below the PT threshold, Median", "setting": "[2]; [4]", "result": 11.8, "unit": "h"}, {"measurement": "LS Mean Percentage Change in TSB at 48 hrs", "setting": "[2]; [4]", "result": "−9.5", "unit": "%"}, {"measurement": "PT Failure (%)", "setting": "[2]; [5]", "result": "(3%)"}, {"measurement": "PT Failure Odds Ratio vs Placebo", "setting": "[2]; [5]", "result": 0.09}, {"measurement": "Rebound Hyperbilirubinemia (%)", "setting": "[2]; [5]", "result": "(3%)"}, {"measurement": "Rebound Hyperbilirubinemia N", "setting": "[2]; [5]", "result": "1/31"}, {"measurement": "LS Mean Difference vs Placebo in TSB at 48 hrs", "setting": "[2]; [5]", "result": "−27.69"}, {"measurement": "PT Failure N", "setting": "[2]; [5]", "result": "1/31"}, {"measurement": "Time at which TSB crosses at or below the PT threshold, Median", "setting": "[2]; [5]", "result": 10.6, "unit": "h"}, {"measurement": "LS Mean Percentage Change in TSB at 48 hrs", "setting": "[2]; [5]", "result": "−5.5", "unit": "%"}, {"measurement": "PT Failure (%)", "setting": "[2]; [6]", "result": "(7%)"}, {"measurement": "PT Failure Odds Ratio vs Placebo", "setting": "[2]; [6]", "result": 0.20}, {"measurement": "Rebound Hyperbilirubinemia (%)", "setting": "[2]; [6]", "result": "(2%)"}, {"measurement": "Rebound Hyperbilirubinemia N", "setting": "[2]; [6]", "result": "1/61"}, {"measurement": "LS Mean Difference vs Placebo in TSB at 48 hrs", "setting": "[2]; [6]", "result": "−29.69"}, {"measurement": "PT Failure N", "setting": "[2]; [6]", "result": "4/61"}, {"measurement": "Time at which TSB crosses at or below the PT threshold, Median", "setting": "[2]; [6]", "result": 11.6, "unit": "h"}, {"measurement": "LS Mean Percentage Change in TSB at 48 hrs", "setting": "[2]; [6]", "result": "−7.4", "unit": "%"}, {"measurement": "effect on percentage change in total serum bilirubin (TSB) at 24 hours after drug administration", "setting": "[2]; [7]", "result": "highly statistically significant (P<0.0001) positive effect"}, {"measurement": "effect on percentage change in total serum bilirubin (TSB) at 48 hours after drug administration", "setting": "[2]; [7]", "result": "highly significant (P<0.0001) positive effect"}, {"measurement": "effect on percentage change in total serum bilirubin (TSB) at 48 hours after drug administration", "setting": "[2]; both high dose (4.5 mg/kg) and low dose (3.0 mg/kg), compared with phototherapy and placebo, listed as stannsoporfin", "result": "statistically significant positive effect"}, {"measurement": "Serious TEAEs, proportion of infants", "setting": "[3]; Stannsoporfin treated infants (both doses) plus phototherapy, vs 20% of placebo", "result": 15, "unit": "%"}, {"measurement": "treatment-emergent adverse events (TEAEs), proportion of infants", "setting": "[3]; Stannsoporfin treated infants (both doses) plus phototherapy, vs 52% among placebo", "result": 59, "unit": "%"}, {"measurement": "TEAEs related to phototherapy (eg skin rash, erythema), proportion of infants", "setting": "[3]; Stannsoporfin treated infants (both doses), vs 10% of placebo", "result": 16, "unit": "%"}, {"measurement": "discontinuation of the study due to an adverse event", "setting": "[3]; [8]", "result": "no infant discontinued the study due to an adverse event"}, {"measurement": "infant deaths", "setting": "[3]; [8]", "result": "no infant deaths"}, {"measurement": "safety signals", "setting": "[3]; either dose (3.0 or 4.5 mg/kg)", "result": "no safety signals"}]}
